In patent publication US20100152297A1, “COMPOSITION FOR REGULATING CELLULAR SENESCENCE COMPRISING N-[2-(CYCLOHEXY-LOXYL)-4-NITROPHENYL]-METHANESULFONAMIDE” (priority 2007, published 2010):
“Also recorded” adds a separate entry of the source.

Legend:
[1] = tested on: collagen; settings: fibroblasts and hepatic stellate cells; references 24 and 36; cited from earlier work
[2] = tested on: human promonocytes; settings: reference 25; cited from earlier work
[3] = tested on: catalase; assay: Western blot, catalase expression; assay type: cell-based, human; settings: P28 cells cultured in the presence of inhibitor
[4] = tested on: SOD-2 (superoxide dismutase-2); assay: Western blot, SOD-2 expression; assay type: cell-based, human; settings: P28 cells cultured in the presence of inhibitor
[5] = tested on: Gpx-1 (glutathione peroxidase-1); assay: Western blot, Gpx-1 expression; assay type: cell-based, human; settings: P28 cells cultured in the presence of inhibitor
[6] = tested on: human fibroblasts; assay: Regulation of growth rate: number of population doublings (PDs); assay type: cell-based; settings: for effect on cellular senescence: conclusion from population doublings and SA-β-gal staining; for reduction of the maximum number of population doublings compared to DMSO: celecoxib 1 μM, nimesulide 20 μM, aspirin 1 mM, ibuprofen 20 μM, flurbiprofen 5 μM
Procedure: According to the literature of Boyce and Ham (1983), human fibroblasts were isolated from foreskin, and then cultured in a DMEM medium, containing 10% fetal bovine serum (Life Technology Inc., Grand Island, N.Y.), penicillin (100 units/ml) and streptomycin (100 units/ml)). […] Then, the number of the cells was calculated by trypan blue staining, and the number of population doublings (PDs) of the cells was calculated according to the following equation 1: Number of population doublings (PDs)=log(A/B)/log2 [Math Figure 1] wherein A is the number of cells harvested at one passage, and B is the initial cell number at that passage.

[7] = tested on: p53; assay: Western blot, p53 expression; assay type: cell-based, human; settings: cells cultured with inhibitor, harvested at each passage
Procedure: In order to examine the effects of COX-2 inhibitors on cellular senescence, cells were cultured and treated in the same manner as in Example 2, and then subjected to Western blot. The cultured cells were washed and collected in PBS, and then were disrupted in RIPA buffer (150 mM NaCl, 100 mM Tris-HCl, 1% Tween-20, 1% sodium deoxycholate and 0.1% SDS), containing 0.5 mM EDTA, 1 mM PMSF, 10 μg/ml leupeptin, 10 μg/ml aprotinin and 10 μg/ml pepstatin. The disrupted cells were centrifuged, and the supernatant was collected. Proteins in the cell extract were isolated by SDS-PAGE and transferred to nitrocellulose membranes. Then, the proteins were allowed to react with each of p53, p21, COX-1, COX-2 and caveolin-1 antibodies, and the protein-antibody complexes on the nitrocellulose membranes were allowed to react with peroxidase-conjugated anti-mouse or anti-rabbit secondary antibody. Then, the corresponding bands were visualized by chemiluminescence (Amersham Bioscience, Boston, Mass.) using an ECL kit. Herein, the antibodies for p53, p21 and COX-1 were purchased from Oncogene Science (Cambridge, Mass.), Cell Signaling Technology, Inc. (Danvers, Mass.), and Santa Cruz Biotechnology (Santa Cruz, Calif.), respectively, and the antibodies for COX-2 and cavelolin-1 were purchased from BD Bioscience (San Jose, Calif.). […]

[8] = tested on: total cholesterol; assay: Analysis of intracellular total cholesterol; assay type: cell-based, human; settings: corrected with protein concentration
Procedure: In order to examine the effects of COX-2 inhibitors on cellular senescence, cells were cultured and treated in the same manner as in Example 2, and then analyzed for cholesterol. 2×10^6 cells were treated with a mixture of chloroform and methanol (2:1) to extract a fatty component. The amount of total cholesterol in the fatty component was measured at 570 nm using a staining method according to the manual of BioVision (Mountain View, Calif.), and the measured values were corrected with the protein concentration.

[9] = tested on: caveolin-1 mRNA; assay: RT-PCR, caveolin-1 mRNA; assay type: cell-based, human; settings: corrected with GAPDH
Procedure: In order to examine the effects of COX-2 inhibitors on cellular senescence, cells were cultured and treated in the same manner as in Example 2, and then subjected to RT-PCR. […] The cavelolin-1 gene was amplified using a sense primer ([NT]) and an anti-sense primer ([NT]), and the GAPDH gene was amplified using a sense primer ([NT]) and an anti-sense primer ([NT]). The polymerase chain reaction was performed in the following conditions: 25 cycles of 30 sec at 95 t, 30 sec at 60° C. and 30 sec at 72° C. The resulting DNA products were electrophoresed on 2% agarose gel containing EtBr.

[10] = tested on: caveolin-1; assay: Western blot, caveolin-1 expression; assay type: cell-based, human; settings: for expression of caveolin-1: cells cultured with inhibitor, harvested at each passage; for expression of caveolin-1, short treatment: short period of time (NS-398: 4 hours)
Procedure: (§1) In order to examine the effects of COX-2 inhibitors on cellular senescence, cells were cultured and treated in the same manner as in Example 2, and then subjected to Western blot. The cultured cells were washed and collected in PBS, and then were disrupted in RIPA buffer (150 mM NaCl, 100 mM Tris-HCl, 1% Tween-20, 1% sodium deoxycholate and 0.1% SDS), containing 0.5 mM EDTA, 1 mM PMSF, 10 μg/ml leupeptin, 10 μg/ml aprotinin and 10 μg/ml pepstatin. The disrupted cells were centrifuged, and the supernatant was collected. Proteins in the cell extract were isolated by SDS-PAGE and transferred to nitrocellulose membranes. Then, the proteins were allowed to react with each of p53, p21, COX-1, COX-2 and caveolin-1 antibodies, and the protein-antibody complexes on the nitrocellulose membranes were allowed to react with peroxidase-conjugated anti-mouse or anti-rabbit secondary antibody. Then, the corresponding bands were visualized by chemiluminescence (Amersham Bioscience, Boston, Mass.) using an ECL kit. Herein, the antibodies for p53, p21 and COX-1 were purchased from Oncogene Science (Cambridge, Mass.), Cell Signaling Technology, Inc. (Danvers, Mass.), and Santa Cruz Biotechnology (Santa Cruz, Calif.), respectively, and the antibodies for COX-2 and cavelolin-1 were purchased from BD Bioscience (San Jose, Calif.). Also, β-actin was used as an intracellular control protein to correct the amount of the intracellular total protein.

[11] = tested on: reactive oxygen species; assay: Measurement of reactive oxygen species with DCFH-DA; assay type: cell-based, human; settings: treated for a long period of time (65 days), P29
Procedure: In order to examine the effects of COX-2 inhibitors on cellular senescence, cells were cultured and treated in the same manner as in Example 2, and reactive oxygen in the cells was then measured. The cultured cells were treated with 5 μM DCFH-DA (Invitrogen, Carlsbad, Calif.), and the cells were incubated at 37 C for 45 minutes and then washed with PBS. The washed cells were collected in 1 ml PBS, and then disrupted with ultrasonic waves. The fluorescence of the cells was measured with a fluorescence spectrophotometer (Molecular Devices, Sunnyvale, Calif.), and the measured fluorescence value was corrected with the cell number.

[12] = tested on: p21; assay: Western blot, p21 expression; assay type: cell-based, human; settings: cells cultured with inhibitor, harvested at each passage
Procedure: as §1, with “Also, β-actin was used as an intracellular control protein to correct the amount of the intracellular total protein.” left out

[13] = tested on: human fibroblasts; assay: Senescence-associated beta-galactosidase (SA-β-gal) staining; assay type: cell-based; settings: celecoxib 1 μM, nimesulide 20 μM, aspirin 1 mM, ibuprofen 20 μM, flurbiprofen 5 μM
Procedure: Herein, the senescence-associated β-galactosidase (SA-β-gal) staining was performed in the following manner according to the method of Dimri et al. (1995) (17). […] The cultured cells were seeded on a 35 mm dish, and then stabilized. Then, the cells were washed twice with PBS and fixed with 3% formaldehyde at room temperature for 5 minutes. […] During the progression of the reaction, light was blocked. […] The experiment was independently repeated twice, and the mean value and standard deviation of the measurements were calculated.

[14] = tested on: human vascular endothelial cells; settings: reference 16; cited from earlier work
[15] = tested on: Drosophila; settings: long-term administration; reference 15; cited from earlier work

CS(=O)(=O)Nc1ccc([N+](=O)[O-])cc1OC1CCCCC1 [NS-398, N-[2-(cyclohexyloxyl)-4-nitrophenyl]-methanesulfonamide]
expression of collagen [1]: increased | reactive oxygen species in human promonocytes [2]: remove reactive oxygen species | expression of catalase [3]: reduced | expression of SOD-2 [4]: reduced | expression of Gpx-1 [5]: increased | increase of the maximum number of population doublings compared to DMSO ([6]; PD 24 before treatment, NS-398 20 μM): 7 times | effect on cellular senescence [6]: inhibited cellular senescence; also recorded: strongly inhibits cellular senescence | expression of p53 [7]: without inhibiting | intracellular total cholesterol concentration [8]: reduced | mRNA level of caveolin-1 [9]: reduced | expression of caveolin-1 [10]: inhibited the expression of caveolin-1 at all passages | expression of caveolin-1, short treatment [10]: clearly inhibited | reduction of the level of reactive oxygen species [11]: three | expression of p21 [12]: inhibited

CC(=O)Oc1ccccc1C(=O)O [aspirin, acetylsalicylic acid]
increase of the ratio of SA-β-gal positive cells compared to DMSO [13]: 1.9 times | reduction of the maximum number of population doublings compared to DMSO ([6]; PD 24 before treatment): 7 times | effect on cellular senescence [6]: promoted cellular senescence | effect on senescence in human vascular endothelial cells [14]: inhibited senescence | average lifespan of Drosophila [15]: led to a decrease in the average lifespan of the Drosophila or had no effect on the average lifespan

Cc1ccc(-c2cc(C(F)(F)F)nn2-c2ccc(S(N)(=O)=O)cc2)cc1 [celecoxib]
increase of the level of reactive oxygen species [11]: 1.2 times

CC(C(=O)O)c1ccc(-c2ccccc2)c(F)c1 (stereo not shown) [flurbiprofen]
increase of the ratio of SA-β-gal positive cells compared to DMSO [13]: 1.6 times | reduction of the maximum number of population doublings compared to DMSO ([6]; PD 24 before treatment): 4 times | effect on cellular senescence [6]: promoted cellular senescence

CC(C)Cc1ccc(C(C)C(=O)O)cc1 (stereo not shown) [ibuprofen]
increase of the ratio of SA-β-gal positive cells compared to DMSO [13]: 1.7 times | reduction of the maximum number of population doublings compared to DMSO ([6]; PD 24 before treatment): 5 times | effect on cellular senescence [6]: promoted cellular senescence

COc1ccc2c(c1)c(CC(=O)O)c(C)n2C(=O)c1ccc(Cl)cc1 [indomethacin]
effect on senescence in human vascular endothelial cells [14]: promoted senescence | average lifespan of Drosophila [15]: led to a decrease in the average lifespan of the Drosophila or had no effect on the average lifespan

CS(=O)(=O)Nc1ccc([N+](=O)[O-])cc1Oc1ccccc1 [nimesulide]
reactive oxygen species in human promonocytes [2]: remove reactive oxygen species | expression of catalase [3]: reduced | expression of SOD-2 [4]: reduced | expression of Gpx-1 [5]: reduced | increase of the ratio of SA-β-gal positive cells compared to DMSO [13]: 1.3 times | reduction of the maximum number of population doublings compared to DMSO ([6]; PD 24 before treatment): two | effect on cellular senescence [6]: promoted cellular senescence | expression of p53 [7]: increased | intracellular total cholesterol concentration [8]: increased | mRNA level of caveolin-1 [9]: increased | expression of caveolin-1 [10]: increased | expression of caveolin-1, short treatment [10]: did not significantly change | increase of the level of reactive oxygen species [11]: 1.2 times | expression of p21 [12]: increased

O=C(O)c1ccccc1O [salicylic acid]
average lifespan of Drosophila [15]: led to a decrease in the average lifespan of the Drosophila or had no effect on the average lifespan
